Measurements published in patent publication US20130266557A1, “METHODS FOR TREATMENT OF A SARCOMA USING AN EPIMETABOLIC SHIFTER (COENZYME Q10)” (priority 2009, published 2013).
“Also recorded” adds a separate entry of the source.

Test system: NCIES0808 cells
Experiment: Two-dimensional gel analysis with MS identification
Format: cell-based, human
Method: NCIES0808 cells were plated in T25 flasks in experimental conditions similar to those described in the PCR array section. At the end of the treatment time, cells were trypsinized as described in the PCR array section and washed twice in ice cold TBS and snap frozen in liquid nitrogen. Further processing for Western blots was carried out at UMass.
Before isoelectric focusing (IEF), samples were solubilized in 40 mM Tris, 7 M urea, 2 M thiourea, and 1% C7 zwitterionic detergent, reduced with tributylphosphine, and alkylated with 10 mM acrylamide for 90 min at room temperature. After the sample was run through a 10-kDa cutoff Amicon Ultra device with at least 3 volumes of the resuspension buffer, consisting of 7 M urea, 2 M thiourea, and 2% CHAPS to reduce the conductivity of the sample. One hundred micrograms of protein were subjected to IEF on 11-cm pH 3 to 10, pH 4 to 7 or pH 6 to 11 immobilized pH gradient strips (GE, Amersham, USA) to 100,000 volts hour. After IEF, immobilized pH gradient strips were equilibrated in 6 M urea, 2% SDS, 50 mM Tris-acetate buffer, pH 7.0, and 0.01% bromphenol blue and subjected to SDS-polyacrylamide gel electrophoresis on 8 to 16% Tris-HCl Precast Gel, 1 mm (Bio-Rad, USA). The gels were run in duplicate. They were fixed, stained in SYPRO Ruby, 80 mL/gel (Invitrogen, USA) and imaged on Fuji FLA-5100 laser scanner.
Analysis of all gel images was performed using Progenesis Discovery and Pro (Nonlinear Dynamics Inc., Newcastle upon Tyne, UK). After spot detection, matching, background subtraction, normalization, and filtering, data for SYPRO Ruby gel images was exported. […] Manual annotation of each statistically significant spots was performed to assure accurate detection.
Tryptic peptides extracted from respective gel plugs were dried down to a 10 ul volume and acidified with 1-2 ul of 1% TFA. Samples were loaded on an uC18 Zip Tip (Millipore, Corp) after pre-equilibration in 0.1% TFA. After washing with 2×10 ul aliquots of 0.1% TFA, samples were deposited directly onto the MALDI sample target using 1 ul of Matrix solution 15 mg/ml of 2,5 Dihydroxybenzoic Acid (MassPrep DHB, Waters Corp.) in 50:50 Acetonitrile: 0.1% TFA. Samples were allowed to air dry prior to insertion into the mass spectrometer. Analysis were performed on a Kratos Axima QIT (Shimadzu Instruments) matrix-assisted-laser desorption/ionization (MALDI) mass spectrometer. Peptides were analyzed in positive ion mode in mid mass range (700-3000 Da). The instrument was externally calibrated with Angiotensin II (1046.54), P14R (1533.86) and ACTH (18-39) 2465.20 Da. Precursors were selected based on signal intensity at a mass resolution width of 250 for CID fragmentation using Argon as the collision gas. Database searches were performed in house with Mascot (Matrix Sciences, Ltd.) using the Peptide Mass Fingerprint program for MS data and the MS/MS Ion Search program for CID data. All identifications were confirmed or established with CID (MS/MS) data.
NCIES0808 cells treated for 3, 6 and 24 hours were subjected to 2-D gel electrophoreses and were analyzed to identify protein-level changes relative to the control media samples. A comparative analysis of spots across multiple duplicated gels was performed, comparing the “control media sample” against all of the treated samples at both the 50 uM and 100 uM doses. The analysis included the identification of spot changes over the time course due to an increase, decrease, or post-translational modification.

[1] = 24 hours, 50 uM Q10, − = down, 1 = no change
[2] = 24 hours, 100 uM Q10, − = down, 1 = no change

With Coenzyme Q10 [CoQ10] the “Spot 369, eukaryotic translation elongation factor 1 delta: modulation vs control media” value [1] was 1.1, the “Spot 372, lamin B1: modulation vs control media” value [1] was 1 and the “Spot 387, SMT 3 suppressor of mif two 3 homolog 2: modulation vs control media” value [1] was 1. For the same substance, the “Spot 388, heat shock protein 27 kD: modulation vs control media” value [1] was 1.1, the “Spot 396, hnRNP C1/C2: modulation vs control media” value [1] was −1.4 and the “Spot 436, eukaryotc translation elongation factor 1 beta 2: modulation vs control media” value [1] was 1. The “Spot 490, Similar to HSPC-300: modulation vs control media” value [1] was −1.2, the “Spot 506, heat shock protein 27 kD: modulation vs control media” value [1] was −1.2 and the “Spot 511, eukaryotic translation elongation factor 1 delta: modulation vs control media” value [1] was 1. For the same substance, the “Spot 524, eukaryotic translation elongation factor 1 delta: modulation vs control media” value [1] was 1, the “Spot 532, putative c-myc-responsive isoform 1: modulation vs control media” value [1] was 1 and the “Spot 557, lamin B1: modulation vs control media” value [1] was 1. For the same substance, the “Spot 575, ER lipid raft associated 2 isoform 1; beta actin: modulation vs control media” value [1] was 1.1, the “Spot 583, Dismutase Cu/Zn Superoxide: modulation vs control media” value [1] was 1.1 and the “Spot 622, DNA directed DNA polymerase epislon 3; (canopy 2 homolog): modulation vs control media” value [1] was −1.1. The “Spot 646, signal sequence receptor 1 delta: modulation vs control media” value [1] was 1, the “Spot 16, alpha 2-HS glycoprotein (Bos Taurus, cow): modulation vs control media” value [2] was 5.9 and the “Spot 130, ribosomal proten P2; histone H2A: modulation vs control media” value [2] was −4.2. The “Spot 180, beta actin: modulation vs control media” value [2] was 3, the “Spot 234, hnRNP C1/C2: modulation vs control media” value [2] was −2.6 and the “Spot 244, heat shock protein 70 kD: modulation vs control media” value [2] was 1.7. For the same substance, the “Spot 275, microtubule associated protein: modulation vs control media” value [2] was −1.8, the “Spot 311, beta tubulin: modulation vs control media” value [2] was 2.6 and the “Spot 314, proteasome alpha 3: modulation vs control media” value [2] was −2.2. For the same substance, the “Spot 363, ATP dependent helicase II: modulation vs control media” value [2] was 2.1, the “Spot 369, eukaryotic translation elongation factor 1 delta: modulation vs control media” value [2] was −2 and the “Spot 372, lamin B1: modulation vs control media” value [2] was −2.1. For the same substance, the “Spot 387, SMT 3 suppressor of mif two 3 homolog 2: modulation vs control media” value [2] was −1.95, the “Spot 388, heat shock protein 27 kD: modulation vs control media” value [2] was −1.7 and the “Spot 396, hnRNP C1/C2: modulation vs control media” value [2] was −2. The “Spot 436, eukaryotc translation elongation factor 1 beta 2: modulation vs control media” value [2] was −1.9, the “Spot 490, Similar to HSPC-300: modulation vs control media” value [2] was 1.5 and the “Spot 506, heat shock protein 27 kD: modulation vs control media” value [2] was −1.9. The “Spot 511, eukaryotic translation elongation factor 1 delta: modulation vs control media” value [2] was −1.6, the “Spot 524, eukaryotic translation elongation factor 1 delta: modulation vs control media” value [2] was −1.7 and the “Spot 532, putative c-myc-responsive isoform 1: modulation vs control media” value [2] was 1.4. For the same substance, the “Spot 557, lamin B1: modulation vs control media” value [2] was −1.6, the “Spot 575, ER lipid raft associated 2 isoform 1; beta actin: modulation vs control media” value [2] was 1.6 and the “Spot 583, Dismutase Cu/Zn Superoxide: modulation vs control media” value [2] was −1.3. For the same substance, the “Spot 622, DNA directed DNA polymerase epislon 3; (canopy 2 homolog): modulation vs control media” value [2] was −1.6, the “Spot 646, signal sequence receptor 1 delta: modulation vs control media” value [2] was 1.5 and the “Expression of proteosome subunits PSMA3, PSMB3, PSMB4 and ubiquitin enzymes (ubiquilin)” value (Ewing Sarcoma ES0808 cell line treated with CoQ10) was “sustained increases”. The “Ku70 (ATP dependent helicase II) level” value (Ewing Sarcoma ES0808 cell lines treated with CoQ10) was “decrease”, the “Proteins with observed increase in expression (value = protein), discussion A” value (Ewing Sarcoma cell line treated with CoQ10) was “ribosomal proteins (RPLP2); also recorded: eukaryotic translation initiation factors (EIF3G, EIF4A2); also recorded: eukaryotic translation elongation factors (EEF1B2, EEF1D); also recorded: heat shock proteins (HSP27, HSP60, HSP70); also recorded: dyenin” and the “hnRNP C1/C2 expression” value (persisted up to 24 hours) was “down-regulation”.
